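These data come from cells grown in 96-well plates and exposed to compound for 48 hours at five concentrations. Abbreviation: GI50, concentration required for 50% inhibition of growth. TGI marks complete inhibition of growth.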
Experiments:
Test in all cases: growth of human tumour cells (NCI), 48 h
UO-31 renal = tested on: UO-31 renal
OVCAR-3 ovarian = tested on: OVCAR-3 ovarian
UACC-257 melanoma = tested on: UACC-257 melanoma
HCT-15 colon = tested on: HCT-15 colon
COLO 205 colon = tested on: COLO 205 colon
HT29 colon = tested on: HT29 colon
SNB-75 CNS = tested on: SNB-75 CNS
A549 NSCLC = tested on: A549 NSCLC
A498 renal = tested on: A498 renal
MALME-3M melanoma = tested on: MALME-3M melanoma

SMILES: O=C(O)c1cc2ccccc2c(O)c1O
- TGI (UO-31 renal): 35.4 µM
- TGI (OVCAR-3 ovarian): 28.9 µM
- TGI (UACC-257 melanoma): 23.1 µM
- TGI (HCT-15 colon): 42.6 µM
- TGI (COLO 205 colon): 31.4 µM
- TGI (HT29 colon): 49.3 µM
- TGI (SNB-75 CNS): 31.7 µM
- TGI (A549 NSCLC): 38.5 µM
- TGI (A498 renal): 51.7 µM
- TGI (MALME-3M melanoma): 3.78 µM

SMILES: COCCn1cc(-c2csc(-c3c[nH]c4ccccc34)n2)c2cccnc21
- GI50 (UO-31 renal): 4.15 µM
- TGI (UO-31 renal): > 100 µM
- GI50 (OVCAR-3 ovarian): 2.94 µM
- TGI (OVCAR-3 ovarian): > 100 µM
- GI50 (UACC-257 melanoma): > 100 µM
- TGI (UACC-257 melanoma): > 100 µM
- GI50 (HCT-15 colon): 2.34 µM
- TGI (HCT-15 colon): > 100 µM
- GI50 (COLO 205 colon): 2.66 µM
- TGI (COLO 205 colon): > 100 µM
- GI50 (HT29 colon): 3.19 µM
- TGI (HT29 colon): > 100 µM
- GI50 (SNB-75 CNS): 1.43 µM
- TGI (SNB-75 CNS): 24.7 µM
- GI50 (A549 NSCLC): 7.1 µM
- TGI (A549 NSCLC): > 100 µM
- GI50 (A498 renal): 3.03 µM
- TGI (A498 renal): 9.56 µM
- GI50 (MALME-3M melanoma): 3.58 µM
- TGI (MALME-3M melanoma): > 100 µM

SMILES: CCCC1c2c(ccc3ccccc23)Oc2ccc3ccccc3c21
- TGI (UO-31 renal): > 100 µM
- TGI (OVCAR-3 ovarian): > 100 µM
- TGI (UACC-257 melanoma): 70.8 µM
- TGI (HCT-15 colon): > 100 µM
- TGI (COLO 205 colon): > 100 µM
- TGI (HT29 colon): > 100 µM
- TGI (SNB-75 CNS): > 100 µM
- TGI (A549 NSCLC): > 100 µM
- TGI (A498 renal): 78 µM
- TGI (MALME-3M melanoma): > 100 µM

SMILES: CSc1nc2c(c(=O)[nH]1)N=C1c3ccccc3C(=O)C1C(c1ccc(F)cc1)N2 (stereo not given)
- GI50 (UO-31 renal): 16.3 µM
- TGI (UO-31 renal): > 100 µM
- GI50 (OVCAR-3 ovarian): 3.38 µM
- TGI (OVCAR-3 ovarian): 12.5 µM
- GI50 (UACC-257 melanoma): 26 µM
- TGI (UACC-257 melanoma): > 100 µM
- GI50 (HCT-15 colon): 4.57 µM
- TGI (HCT-15 colon): > 100 µM
- GI50 (COLO 205 colon): 13 µM
- TGI (COLO 205 colon): > 100 µM
- GI50 (HT29 colon): 3.36 µM
- TGI (HT29 colon): 12.3 µM
- GI50 (SNB-75 CNS): 1.46 µM
- TGI (SNB-75 CNS): 14.9 µM
- GI50 (A549 NSCLC): 12.6 µM
- TGI (A549 NSCLC): > 100 µM
- GI50 (A498 renal): 4.88 µM
- TGI (A498 renal): 20.5 µM
- GI50 (MALME-3M melanoma): 19.6 µM
- TGI (MALME-3M melanoma): > 100 µM

SMILES: N#Cc1c(C(=O)c2ccccc2)cnn1-c1ccccc1
- GI50 (UO-31 renal): > 25 µM
- TGI (UO-31 renal): > 25 µM
- GI50 (OVCAR-3 ovarian): > 25 µM
- TGI (OVCAR-3 ovarian): > 25 µM
- GI50 (UACC-257 melanoma): > 25 µM
- TGI (UACC-257 melanoma): > 25 µM
- GI50 (HCT-15 colon): > 25 µM
- TGI (HCT-15 colon): > 25 µM
- GI50 (COLO 205 colon): > 25 µM
- TGI (COLO 205 colon): > 25 µM
- GI50 (HT29 colon): > 25 µM
- TGI (HT29 colon): > 25 µM
- GI50 (SNB-75 CNS): > 25 µM
- TGI (SNB-75 CNS): > 25 µM
- GI50 (A549 NSCLC): > 25 µM
- TGI (A549 NSCLC): > 25 µM
- GI50 (A498 renal): > 25 µM
- TGI (A498 renal): > 25 µM
- GI50 (MALME-3M melanoma): > 25 µM
- TGI (MALME-3M melanoma): > 25 µM

SMILES: O=C(/C=C/c1ccc(OCC(=O)N2CCN(c3ccccc3)CC2)cc1)c1ccc(Cl)cc1
- TGI (UO-31 renal): > 97.2 µM
- TGI (OVCAR-3 ovarian): > 100 µM
- TGI (UACC-257 melanoma): > 100 µM
- TGI (HCT-15 colon): > 100 µM
- TGI (COLO 205 colon): > 100 µM
- TGI (HT29 colon): > 100 µM
- TGI (SNB-75 CNS): 39.2 µM
- TGI (A549 NSCLC): > 100 µM
- TGI (A498 renal): 60.3 µM
- TGI (MALME-3M melanoma): > 100 µM

SMILES: C/C(=N/S(=O)(=O)c1ccc(Cl)c(Cl)c1)OCC(C)(C)C
- TGI (UO-31 renal): > 100 µM
- TGI (OVCAR-3 ovarian): > 100 µM
- TGI (UACC-257 melanoma): > 100 µM
- TGI (HCT-15 colon): > 100 µM
- TGI (COLO 205 colon): > 100 µM
- TGI (HT29 colon): > 100 µM
- TGI (SNB-75 CNS): > 100 µM
- TGI (A549 NSCLC): > 100 µM
- TGI (A498 renal): > 100 µM
- TGI (MALME-3M melanoma): > 100 µM
